Reference: PubChem BioAssay (NCI)
Values joined by “and” are separate entries in the source; they are usually repeats but may differ in a detail not shown here. Equal values may be shown once.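 Where inhibition never reached the appropriate level, the endpoint shown equals the highest concentration tested. Otherwise, values were interpolated linearly from a five-concentration, 48-hour dose response in 96-well plates. At the GI50, growth is halved. TGI denotes the concentration required for complete inhibition of growth.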

Tests used:
Assay in all cases: NCI-60 cell line screen, 48 h
[1] = tested on: U251 CNS
[2] = tested on: TK-10 renal
[3] = tested on: SW-620 colon
[4] = tested on: BT-549 breast
[5] = tested on: RPMI-8226 leukemia
[6] = tested on: SK-OV-3 ovarian
[7] = tested on: NCI-H23 lung
[8] = tested on: SK-MEL-5 melanoma

Row | SMILES | GI50 [1] [µM] | TGI [1] | GI50 [2] [µM] | TGI [2] | GI50 [3] [µM] | TGI [3] | GI50 [4] | TGI [4] | GI50 [5] | TGI [5] [µM] | GI50 [6] [µM] | TGI [6] | GI50 [7] | TGI [7] | GI50 [8] [µM] | TGI [8]
1 | O=C1CSC(=S)N1Cc1cccnc1 | 23.5 | 61.5 µM | 2.84 | 7.14 µM | 4.13 | 16.8 µM | 18.6 µM | 44.3 µM | 3.35 µM | 17.1 | 35.8 | > 100 µM | 15.1 µM | 48 µM | 24.5 | 71.6 µM
2 | COc1cc(/C=C/C(=O)C(C(=O)/C=C/c2ccc(OC(=O)CCNc3nnc(C)s3)c(OC)c2)C(=O)CCNc2nnc(C)s2)ccc1OC(=O)CCNc1nnc(C)s1 | 2.48 | 7.35 µM | 4.03 | 13.7 µM | 1.64 | 3.33 µM | 2.36 µM | 5.77 µM | 1.85 µM | 4.86 | 4.65 | 23.6 µM | 3.19 µM | 18.4 µM | 1.87 | 4.52 µM
3 | Cc1[nH]n(-c2ccc(S(=O)(=O)O)cc2)c(=O)c1N=Nc1ccccc1 | – | > 100 µM | – | > 100 µM | – | > 100 µM | – | > 100 µM | – | > 100 | – | > 100 µM | – | > 100 µM | – | > 100 µM
4 | O=C1Nc2ccccc2/C1=C/c1cn(C(=O)c2c(Cl)cccc2Cl)c2ccccc12 | 3.47 | 15.5 µM | 10.4 | 56 µM | 2.9 | 12.5 µM | 2.4 µM | 8.95 µM | 3.38 µM | 23.6 | 8.35 | 56.5 µM | 4.08 µM | 17.3 µM | 7.52 | 20.4 µM
5 | CNc1cccnc1/C=N/NC(N)=S | – | > 10 µM | – | > 10 µM | – | > 10 µM | – | > 10 µM | – | > 10 | – | > 10 µM | – | > 6.65 µM | – | > 10 µM
6 | Nc1nc(Cl)c(N=Nc2ccc(Cl)cc2)c(NCC2(CO)CC(OCc3ccccc3)C2)n1 (centres undefined) | – | 28.5 µM and > 100 µM and 36 µM | – | 46.9 µM and > 100 µM and 24.3 µM | – | > 100 µM and 20 µM | 4.98 µM and 45.7 µM and 8.82 µM | 46 µM and > 100 µM and 23.9 µM | 7.56 µM and > 44.4 µM and 14.5 µM | > 100 | – | 69.9 µM and > 100 µM and 30 µM | 3.76 µM and 25 µM and 3.09 µM | 24.9 µM and > 100 µM and 13.9 µM | – | 21 µM and > 100 µM and 38.7 µM
7 | CC(=O)c1c(O)ccc2c(C)c(C(=O)O)oc12 | > 100 | > 100 µM | > 100 | > 100 µM | > 100 | > 100 µM | > 100 µM | > 100 µM | > 100 µM | > 100 | – | – | > 100 µM | > 100 µM | > 100 | > 100 µM
8 | COc1ccc(Cn2cc3c(c2-c2ccc(O)cc2)CCc2cnoc2-3)cc1 | 0.447 | 15.1 µM | 0.603 | 24.4 µM | 0.295 | 15.9 µM | 10 µM | 26.7 µM | 0.365 µM | 6.36 | 0.34 | 14.3 µM | 0.461 µM | 17.8 µM | 0.315 | 12.6 µM
9 | CCN(CC)CCCNc1nc2ccccc2c2c(=O)c3cc(Cl)ccc3sc12 | 2.04 | 4.92 µM | 2.15 | 3.97 µM | 1.77 | 3.41 µM | 15.8 µM | 30.4 µM | 3.2 µM | 10.1 | – | – | 3.69 µM | 15.1 µM | 3.11 | 11.3 µM
10 | CC(C)=CC(O)C/C(C)=C/CC/C(C)=C/CCC1(C)C(CCCO)/C(=C(/C)C=O)CCC1(C)O (centres undefined) | – | > 100 µM | – | > 100 µM | – | > 100 µM | – | > 100 µM | – | 47.2 | – | > 100 µM | – | 93 µM | – | > 100 µM
11 | O=C1/C(=C/c2ccc([N+](=O)[O-])o2)Oc2ccccc21 | 1.96 | 4.66 µM | 1.59 | 3.02 µM | 0.373 | 1.61 µM | 1.76 µM | 3.74 µM | 1.02 µM | 3.58 | 6.4 | 18.2 µM | 1.95 µM | 5.08 µM | 1.69 | 3.29 µM
12 | O=C1c2cccc3cccc(c23)C(=O)N1CCCCN1CCN(CCCCOc2ccc(-c3nc4ccc(N5CCOCC5)cc4[nH]3)cc2)CC1 | 7.93 | > 100 µM | > 100 | > 100 µM | > 100 | > 100 µM | 35.4 µM | > 100 µM | > 100 µM | > 100 | > 100 | > 100 µM | > 100 µM | > 100 µM | 9.1 | > 100 µM
13 | Cc1ccc(NSc2ccccc2[N+](=O)[O-])cc1 | 0.768 | 16.3 µM | 10.4 | 25.4 µM | 0.137 | 16.2 µM | 2.21 µM | 23 µM | 0.925 µM | 52.3 | 1.06 | 20.1 µM | 1.58 µM | 22.6 µM | 0.152 | 13.6 µM
14 | CCCCCCCCCCCCSC(=NC)NC | – | – | 1.71 | 3.49 µM | – | – | 4.09 µM | 21 µM | 2.07 µM | 4.77 | 4.26 | 19 µM | 2.2 µM | 4.71 µM | 1.48 | 2.85 µM
15 | O=C1Nc2ccccc2/C1=C/c1ccccc1 | – | 30 µM | – | 45.1 µM | – | > 100 µM | – | 31.2 µM | – | 77.7 | – | 98.3 µM | – | 42.7 µM | – | 26.1 µM
16 | C=C(C)[C@@H]1CC[C@]2(C(=O)O)CC[C@]3(C)[C@H](CC[C@@H]4[C@@]5(C)C[C@@H](CC#Cc6ccc(Br)cc6)C(=O)C(C)(C)[C@@H]5CC[C@]43C)[C@@H]12 | 2.12 | 6.72 µM | 23.7 | > 100 µM | 3.73 | > 100 µM | 21 µM | 55 µM | 9.08 µM | > 100 | 20.2 | > 100 µM | 3.83 µM | 23.9 µM | 34.2 | > 100 µM
17 | COc1cc2c3c(n(CCCNC(=O)OCC4c5ccccc5-c5ccccc54)c(=O)c2cc1OC)-c1cc2c(cc1C3=O)OCO2 | 1.67 | > 87.6 µM | > 56.2 | > 100 µM | > 100 | > 100 µM | – | – | > 28.3 µM | > 100 | > 64.7 | > 100 µM | > 64.1 µM | > 100 µM | 28.2 | > 100 µM
18 | O[C@@H]1CCCN1Cc1cc2cc3c(cc2c2cc(OCc4ccccc4)ccc12)OCO3 | 3.58 | 14.8 µM | 5.85 | 19.8 µM | 2.21 | 5.75 µM | 11 µM | 26.4 µM | 1.77 µM | 4.63 | 12.2 | 25.7 µM | – | – | 1.78 | 3.5 µM
19 | COc1cc(OC)c2cc(C(=O)O)c(=O)oc2c1 | > 100 | > 100 µM | > 74.5 | > 100 µM | > 100 | > 100 µM | > 100 µM | > 100 µM | 6.1 µM | > 36.2 | > 100 | > 100 µM | > 100 µM | > 100 µM | > 100 | > 100 µM
20 | COc1cc(C(=O)/C=C/c2c(-c3ccc(F)cc3)nc3ncccn23)cc(OC)c1OC | 1.68 | 12.9 µM | 3.25 | 22.6 µM | – | – | 1.8 µM | 19.4 µM | 2.56 µM | > 100 | 2.64 | 6.7 µM | 1.58 µM | 5.79 µM | – | –
21 | Cc1cc(O)ccc1O | 32.8 | > 100 µM | 19.5 | 35 µM | 20.7 | 38.6 µM | 16.3 µM | > 100 µM | 9.26 µM | 89.7 | 72.9 | > 100 µM | 39.4 µM | > 100 µM | 62 | > 100 µM
22 | COC(=O)c1oc2c(O)c(OC)c(Br)cc2c1C | 18.2 | 33.1 µM | 18.3 | 40 µM | 30.5 | 82.5 µM | 17.7 µM | 42.6 µM | 20.9 µM | 47.8 | – | – | – | – | 22.2 | 43.5 µM
23 | COc1cc2c3c(n(CCCCNC(=O)OCC4c5ccccc5-c5ccccc54)c(=O)c2cc1OC)-c1cc2c(cc1C3=O)OCO2 | 11.2 | 65.3 µM | 56.3 | > 100 µM | 7.75 | > 100 µM | 79.1 µM | > 100 µM | – | – | > 100 | > 100 µM | 26.4 µM | > 100 µM | 23.4 | > 100 µM
24 | Cc1nc(N)sc1N=Nc1cc(Cl)c([N+](=O)[O-])cc1Cl | – | 44.7 µM | – | 52.1 µM | – | 35.8 µM | – | – | – | 21.8 | – | > 100 µM | – | – | – | 19.4 µM
25 | N#CCC12CC=CCC1=C(O)C(=O)c1ccc(O)cc12 (centres undefined) | – | > 100 µM | – | > 100 µM | – | > 100 µM | – | – | – | > 100 | – | > 100 µM | – | > 100 µM | – | > 100 µM
26 | N#Cc1c(NC(=O)c2cccc3ccccc23)sc2c1CCCC2 | 0.0622 | > 25 µM | – | – | 0.0245 | > 25 µM | 0.144 µM | > 20.9 µM | 0.0872 µM | > 25 | – | – | 0.0874 µM | > 25 µM | 0.0844 | 1.62 µM
